Measurements reported in US10144694B2, “Methods for preparing phenolic branched chain alkyl fatty acids or esters thereof and methods for killing microorganisms” (The United States of America, as Represented by the …, priority 2016, dated 2018).
≈ marks a conversion by molar mass, not a printed value. Where two headings read alike, the source gives them in different places.

Key:
[1] = system: Listeria innocua ATCC 33090; experiment: MIC/MBC micro-dilution; format: cell-based
[2] = system: Listeria innocua ATCC 33090; experiment: Antimicrobial test, 5 min treatment, plate count; format: cell-based; settings: 0.1%
Procedure: Since the solutions contained 10% of ethanol, ethanol (10%) along with water were used as references. The bacteria and the solutions were vortexed and incubated at ambient temperature ([…]) for 5 min before immediately being plated (diluted when needed) on TSA to determine the survival of the bacteria. After 24 h at 37° C., colonies on the plates were counted.
Statistical analysis: Data on antimicrobial test were subjected to statistical analysis using SAS Version 8.2 (SAS Institute, Cary, N.C.). The Duncan's multiple range test was used for the treatment effects.

[3] = Listeria innocua, ATCC33090, 24 h

SMILES: Cc1ccc(C(C)C)c(O)c1 [Thymol]
- MIC ([1]; ATCC33090, Listeria innocua ATCC 33090, 24 h at 37° C., read-out: MIC): 233 to 454 µg/mL (≈ 1.55 to 3.03 mM)
- MBC ([1]; ATCC33090, Listeria innocua ATCC 33090, read-out: MBC): > 454 µg/mL

SMILES: Cc1ccc(C(C)C)cc1O [Carvacrol]
- MBC ([1]; Listeria innocua, ATCC33090): 454 µg/mL (≈ 3.03 mM)
- MIC [1, 3]: 233 to 454 µg/mL (≈ 1.55 to 3.03 mM)

SMILES: CCCCCCCC/C=C\CCCCCCCC(=O)O [OLA, oleic acid]
- Reduction of population of L. innocua [2]: 3.5 logs CFU/mL

SMILES: Oc1ccccc1 [Phenol, phenol]
- MBC ([1]; Listeria innocua, ATCC33090): > 454 µg/mL
- MIC [1, 3]: > 454 µg/mL
- Effect on population of L. innocua [2]: no significant effect
